US8338426B2, “Piperazinyl derivatives useful as modulators of the neuropeptide Y2 receptor” (Janssen Pharmaceutica NV, priority 2007, dated 2012)

Key:
[1] = target: T1, human Y2 receptor (Homo sapiens, UniProt P49146); test: Neuropeptide Y2 radioligand binding assay, [125I]PYY, KAN-Ts cells; conditions: KANT-S cells, mean ± S.E.M., read-out: hY2 pKi (converted)
T1 construct: KAN-Ts endogenously expressing Y2 receptors were used; endogenous in cells; host or cells: KAN-Ts cells
T1 sequence (P49146 1-381): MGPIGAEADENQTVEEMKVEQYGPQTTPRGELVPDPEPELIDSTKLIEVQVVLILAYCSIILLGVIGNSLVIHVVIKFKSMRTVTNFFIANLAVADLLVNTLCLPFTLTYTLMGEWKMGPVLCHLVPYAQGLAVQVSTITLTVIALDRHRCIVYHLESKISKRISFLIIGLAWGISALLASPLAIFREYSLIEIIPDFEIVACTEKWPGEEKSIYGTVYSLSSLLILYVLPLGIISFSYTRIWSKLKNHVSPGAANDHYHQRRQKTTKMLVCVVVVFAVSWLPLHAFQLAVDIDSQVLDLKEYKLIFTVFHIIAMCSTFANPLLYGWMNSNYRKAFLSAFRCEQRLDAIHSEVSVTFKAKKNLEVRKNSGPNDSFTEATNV
Description: Radioligand binding assays for the human and rat/mouse Y2 receptor were performed as described in Bonaventure, P., D. Nepomuceno, C. Mazur, B. Lord, D. A. Rudolph, J. A. Jablonowski, N. I. Carruthers and T. W. Lovenberg, J Pharmacol Exp Ther. 2004, 308, 1130.
KAN-Ts endogenously expressing Y2 receptors were used, for the rat and mouse Y2 receptor, membranes from rat or mouse hippocampus were prepared. Membranes were incubated with [^125I]PYY (80 pM) in the presence or absence of test compound for 1 h at rt. The reaction was stopped by filtration through GF/C filter plates pre-soaked in 0.3% polyethylenimine and subsequently washed with Tris-HCl, 50 mM, 5 mM EDTA buffer. Plates were dried for 1 h in a 55° C. oven, scintillation fluid was added and the radioactivity was counted in a Packard TopCount. Specific binding to the NPY receptor subtypes was determined by radioactivity that was bound in the presence of 1 μM NPY.
Apparent Ki values were calculated as K=IC50/(1+C/KD), where C is concentration of the radioligand and pKi=−log Ki. Data presented below are expressed as mean±S.E.M.

[2] = target: T2, NPY Y1 receptor (Homo sapiens, UniProt P25929); test: CEREP binding panel, NPY Y1
T2 construct: CEREP
T2 sequence (P25929 1-384): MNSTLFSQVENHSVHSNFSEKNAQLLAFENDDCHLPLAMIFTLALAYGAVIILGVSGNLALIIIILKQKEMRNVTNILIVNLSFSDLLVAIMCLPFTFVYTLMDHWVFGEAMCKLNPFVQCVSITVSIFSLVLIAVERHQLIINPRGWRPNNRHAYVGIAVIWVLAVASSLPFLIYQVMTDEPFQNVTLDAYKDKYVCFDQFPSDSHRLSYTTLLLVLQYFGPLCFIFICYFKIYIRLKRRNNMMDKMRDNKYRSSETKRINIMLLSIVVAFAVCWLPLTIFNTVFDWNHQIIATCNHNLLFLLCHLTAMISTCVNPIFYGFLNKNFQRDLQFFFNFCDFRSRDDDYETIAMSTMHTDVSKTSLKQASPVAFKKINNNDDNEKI
Description: The selectivity of the compound of formula (A) was further evaluated in a large variety of ion-channels, transporters and receptor-binding assays including the Y1 receptor subtype. These assays were performed by CEREP (Celles L'Evescault, France; www.cere.com<http//www.cerea.com>). Selectivity vs the Y5 receptor subtype was evaluated as described in Bonaventure, P., D. Nepomuceno, C. Mazur, B. Lord, D. A. Rudolph, J. A. Jablonowski, N. I. Carruthers and T. W. Lovenberg, J Pharmacol Exp Ther. 2004, 308, 1130.
The compound of formula (A) was assayed by binding in a panel of 50 receptors, ion channels and transporters assays (CEREP) including adenosine (A1,A2A,A3), adrenergic (α1, α2, β1), angiotensin (AT1), dopamine (D1, D2), bradykinin (B2), cholecystokinin (CCKA), galanin (GAL2), melatonin ML1), muscarinic (M1, M2, M3), neurotensin (NTS), neurokinin (NK2, NK3), NPY (Y1, Y2) opiate (m, k, d), serotonin (5-HT1A, 5-HT1B, 5-HT2A, 5-HT3, 5-HT5A, 5-HT6, 5-HT7), somatostatin, vasopressin (V1a), norepinephrine transporter, dopamine transporter and ion channels (sodium, calcium, potassium and chloride).

[3] = target: T1, human Y2 receptor; test: [35S]GTPγS binding assay in KAN-Ts cells; format: biochemical
Description: [^35S] GTPγS binding assay in KAN-Ts cells was performed as described in Bonaventure, P., D. Nepomuceno, C. Mazur, B. Lord, D. A. Rudolph, J. A. Jablonowski, N. I. Carruthers and T. W. Lovenberg, J Pharmacol Exp Ther. 2004, 308, 1130.
Assay mixtures (150 were preincubated with compounds for 30 minutes at ambient temperature. Then, 50 μl of [^35S]GTPγS in assay buffer was added to a final concentration of 200 pM and the assay mixtures were incubated for 1 hour at ambient temperature. Reactions were terminated by rapid filtration thought GF/C filters. Filters were washed twice with ice cold 50 mM Tris-HCl, pH 7.4 containing 10 mM MgCl2. Basal [^35S]GTPγS was measured in the absence of compounds. In initial experiments, nonspecific binding was measured in the presence of 100 μM GTPgS. This nonspecific binding never exceeded 10% of basal binding and was thus not subtracted from experimental data. Stimulation of [^35S]GTPγS was determined as percentage over basal and was calculated as one hundred times the difference between stimulated and basal binding (in cpm). […] Data are expressed as mean±S.E.M.
The antagonistic properties of the compound of formula (A) were evaluated in a [^35S]GTPγS binding assay in KAN-Ts cells endogenously expressing human Y2 receptors. […]

- Ki [1]: 5.5 nM
- inhibition at 1 µM [2]: 10%
- IC50 ([3]; read-out: hY2 pIC50corr (converted)): 0.0501 nM
- effect of compound by itself on [35S]GTPγS binding ([3]; up to 10 μM, no PYY): did not affect
Structure (SMILES): CCN(CC)C(=O)C(c1ccccc1)N1CCN(c2ccc(NC(=O)c3ccccc3-c3cccnc3)cc2F)CC1 (racemic) [Cmpd (A), N-{4-[4-(Diethylcarbamoyl-phenyl-methyl)-piperazin-1-yl]-3-fluoro-phenyl}-2-pyridin-3-yl-benzamide]
